Assay results reported in article PMC4907212, “Mucosal and blood-brain barrier transport kinetics of the plant N-alkylamide spilanthol using in vitro and in vivo models” (BMC Complementary and Alternative Medicine, 2016).
Like-named read-outs stand apart in the source and are kept apart here.

Assays:
[1] = Caco-2 cell permeability assay (Transwell, ab and ba direction); type: in vitro ADME, human; settings: human; for Papp A→B at 120 min, 10 μg/ml / Papp B→A at 120 min, 10 μg/ml: mean ± SD, n = 2; for Papp A→B at 120 min, 10 μg/ml: read-out: apparent permeability coefficient (Papp), apical-to-basolateral; for Papp B→A at 120 min, 10 μg/ml: read-out: apparent permeability coefficient (Papp), basolateral-to-apical; for efflux ratio at 120 min, 10 μg/ml: read-out: efflux ratio (Papp,ba/Papp,ab)
Experimental: (§1) Caco-2 cells, originating from a human colorectal carcinoma were maintained in Dulbecco's modified Eagle's medium (DMEM) at 95 % humidity and 37 °C in an atmosphere of 5 % CO2, supplemented with 10 % (V/V) fetal bovine serum, 2 mM L-glutamine and 1 % non-essential amino acids (100x), 100 U/ml penicillin and 100 μg/ml streptomycin (all from Invitrogen/GIBCO, Ghent, Belgium). The Caco-2 cell intestinal model was used as a model for the gut mucosa to investigate the permeation of spilanthol. Caco-2 cells were seeded at a density of 2.6 · 10^5 cells/cm^2 cells for each Transwell (Corning Costar, New York, USA) membrane insert filter (0.4 μm pore size, 12 mm filter diameter) and cultivated in the described supplemented DMEM, also containing 100 units/ml penicillin and 100 μg/ml streptomycin. The medium was changed every second day. The cells were allowed to grow and differentiate for 21-29 days until monolayers were formed. Intact membranes/integrity of the monolayers were checked via the measurement of transepithelial electrical resistance (TEER) of the monolayers using the Millicell-ERS system (Millipore Corp., Bedford, MA, USA) before and after transport experiments. The experiment was performed in duplicate for each dose solution. Transport experiments were carried out in the apical-to-basolateral (ab) direction and in the basolateral-to-apical (ba) direction in Hanks' Balanced Salt solution, according to Hubatsch et al.. Two dose solutions of purified spilanthol at 10 μg/ml were tested, differing in solvent: 0.5 % ethanol (further indicated as DS1) and 0.5 % of a mixture of vitamin E-TPGS (33.3 %), ethanol (11.1 %), PEG 400 (33.3 %) and PG (22.2 %) (further indicated as DS2) dissolved in HBSS. Final volumes of 0.4 ml apically and 1.2 ml basolaterally were used for 12-mm filter supports during the transport experiment. Samples were taken at 15, 30, 60, 90 and 120 min from the acceptor (= receiver) compartment (basolateral to apical transport: 100 μl; apical to basolateral transport: 300 μl) and were immediately replaced by fresh HBSS. […] Quantification of spilanthol was conducted using the UPLC-MS^2 method as described below. The apparent permeability coefficient (Papp in cm/s) of spilanthol was calculated from a non-sink equation. From Fick's first law: J = - […] is the diffusion coefficient, J is the flux or transfer rate along the donor-to-receptor side, x is the distance from the donor compartment and C(x) is the concentration in the barrier at the coordinate x in the barrier), the following differential equation is derived: dMr(t)/dt = Papp × […])], in which Mr is the amount of substance in the receiver chamber, Papp is the apparent permeability coefficient (a product of distribution coefficient with diffusion coefficient divided by the barrier thickness), A is the cross-sectional area of the barrier, Cd is the donor concentration and Cr is the receiver concentration. This differential equation is the basis to calculate Papp values of compounds requiring sink, as well as non-sink conditions with different initial conditions to solve this equation. […] Non-linear curve fitting by minimisation of the sum of squared residuals (SSR) was used to obtain the Papp. The efflux ratio is calculated as Papp,ba/Papp,ab, while the uptake ratio is calculated as Papp,ab/Papp,ba.

Caco-2 cell monolayer = test: as above; type: in vitro ADME, human
Experimental: as §1

[2] = Serum elimination kinetics in the mice MTR model after intravenous injection; type: in vivo, ICR-CD-1 mice
[3] = Brain-to-blood transport after intracerebroventricular injection; type: in vivo, ICR-CD-1 mice; settings: female, ICR-CD-1, mouse, icv or intrathecal, 4 μg per mouse; mice, ICV injection, ln(2)/kout; read-out: efflux brain half-life t1/2,brain
Experimental: To evaluate the efflux of spilanthol out of the brain, an in vivo method previously described was used. Briefly, after anesthetizing the ICR-CD-1 mice using a 40 % (w/V) urethane solution (3 g/kg), the skin of the skull was removed. Thereafter, a hole was made into the lateral ventricle using a 22 G needle marked with tape at 2 mm at the following coordinates: 1 mm lateral and 0.34 mm posterior to the bregma. 1 μl of the 4 mg/ml spilanthol dose solution as used for the blood-to-brain influx experiment was injected intracerebroventriculary (ICV) using a syringe pump (KDS100, KR analytical, Cheshire, UK) at a speed of 360 μl/h for 10 s. […] Prior to decapitation, blood was collected from the abdominal aorta. Serum was obtained by centrifuging the blood at 10 000 g during 15 min at 21 °C and brains were collected. The efflux brain half-life (t1/2,brain) (min) was calculated from the linear regression of the natural logarithm of the spilanthol concentration in brain (ng/g) versus time as follows: t1/2,brain = ln(2)/kout, where kout (min^−1) is defined as the efflux rate constant calculated as the negative value of the slope of the linear regression, applying first order kinetics.

[4] = parameters: method as in PMID 20227845, PMID 19808085, PMID 23583736; settings: porcine buccal mucosa; cited from earlier work

`C/C=C/C=C\CC/C=C/C(=O)NCC(C)C` [spilanthol, deca-2E,6Z,8E-trienoic acid isobutylamide] gave a Papp A→B at 120 min, 10 μg/ml ([1]; Caco-2, DS1 (10 μg/ml purified spilanthol, 0.5 % ethanol in HBSS)) of 84.2 ×10⁻⁶ cm/s, a Papp B→A at 120 min, 10 μg/ml ([1]; Caco-2, DS1) of 102 ×10⁻⁶ cm/s and an efflux ratio at 120 min, 10 μg/ml ([1]; Caco-2, DS1) of 1.21. For the same molecule, the Papp A→B at 120 min, 10 μg/ml ([1]; Caco-2, DS2 (10 μg/ml, 0.5 % vitamin E-TPGS/ethanol/PEG 400/PG mixture in HBSS)) was 56.1 ×10⁻⁶ cm/s, the Papp B→A at 120 min, 10 μg/ml ([1]; Caco-2, DS2) was 52 ×10⁻⁶ cm/s and the efflux ratio at 120 min, 10 μg/ml ([1]; Caco-2, DS2) was 0.93. The recovery at 120 min, 10 μg/ml ([1]; Caco-2, donor plus acceptor at last time point (120 min), read-out: mass balance, total recovery) was 105 to 121%, the “uptake ratio (Papp,ab/Papp,ba)” value (Caco-2 cell monolayer; DS1) was 0.82 and the “amount of spilanthol permeated, apical-to-basolateral” value (Caco-2 cell monolayer; DS1, after 120 min) was 3.20 µg. The “amount of spilanthol permeated, basolateral-to-apical” value (Caco-2 cell monolayer; DS1, after 120 min) was 3.86 µg, the “percentage of applied spilanthol permeated, apical-to-basolateral” value (Caco-2 cell monolayer; DS1, after 120 min) was 79.8% and the “percentage of applied spilanthol permeated, basolateral-to-apical” value (Caco-2 cell monolayer; DS1, after 120 min) was 32.1%. For the same molecule, the “uptake ratio (Papp,ab/Papp,ba)” value (Caco-2 cell monolayer; DS2) was 1.08, the “amount of spilanthol permeated, apical-to-basolateral” value (Caco-2 cell monolayer; DS2, after 120 min) was 2.47 µg and the “amount of spilanthol permeated, basolateral-to-apical” value (Caco-2 cell monolayer; DS2, after 120 min) was 2.49 µg. The “percentage of applied spilanthol permeated, apical-to-basolateral” value (Caco-2 cell monolayer; DS2, after 120 min) was 64.3%, the “percentage of applied spilanthol permeated, basolateral-to-apical” value (Caco-2 cell monolayer; DS2, after 120 min) was 21.6% and the “percentage of applied DS permeated, apical-to-basolateral (absorptive direction)” value (Caco-2 cell monolayer; after 120 min, DS1 and DS2) was 64–80%. The “difference in Papp values between apical-to-basolateral and basolateral-to-apical direction” value (Caco-2 cell monolayer; both dose solutions) was “less than 2 fold”, the half-life ([2]; female, ICR-CD-1, iv, 80 μg per mouse, mouse serum, i.v.) was 3.16 min and the k el ([2]; female, ICR-CD-1, iv, 80 μg per mouse, mouse serum, i.v., one compartmental model, read-out: elimination rate constant (converted)) was 0.00367 s⁻¹. The “concentration of spilanthol at time zero in serum” value ([2]; mice, i.v. 20 μl of 4 mg/ml, one compartmental model) was 3050 ng/mL, the half-life [3] was 6.4 min and the “permeability coefficient Kp,aq” value [4] was 3.14 ×10⁻⁶ cm/s.
